*1 amine or outer side, *2 acyl side, *3 side chain or, on linkers, in order; H or OH if unused. Where a SMILES comes first, the peptide text is derived from it. Bridges are numbered along the chain shown (N, C = ends). [ ]: non-standard residue; d: D form. The star is where a group is joined. X6 = CC(C)(C)CCN([C@@H](Cc1ccc(C(F)(F)F)cc1)C(=O)[*:2])[*:1]; hPhe(3-Cl-4-CF3) = N[C@@H](CCc1ccc(C(F)(F)F)c(Cl)c1)C(=O)O; NPrPhe(4-CF3) = CCCN[C@@H](Cc1ccc(C(F)(F)F)cc1)C(=O)O; hPhe(3,4-Cl2) = N[C@@H](CCc1ccc(Cl)c(Cl)c1)C(=O)O; Pro(4-spirocPr) = O=C(O)[C@@H]1CC2(CC2)CN1; NMeGly(cPent) = CN[C@H](C(=O)O)C1CCCC1; Pro(4,4-F2) = O=C(O)[C@@H]1CC(F)(F)CN1; Gly(cBu) = N[C@H](C(=O)O)C1CCC1; NMeD = CN[C@@H](CC(=O)O)C(=O)O; NMeL = CN[C@@H](CC(C)C)C(=O)O; NMeNva = CCC[C@H](NC)C(=O)O; Morpholide = C1CN(*)CCO1; NMeA = CN[C@@H](C)C(=O)O; Ac5c = NC1(C(=O)O)CCCC1; Aze = O=C(O)[C@@H]1CCN1; Ac4c = NC1(C(=O)O)CCC1; Sar = CNCC(=O)O
How the values were obtained:
[1] = target: GDP-bound NRAS wild-type protein (Homo sapiens, UniProt P01111); test: Binding to NRAS by surface plasmon resonance (SPR), Single Cycle Kinetics; conditions: SPR
GDP-bound NRAS wild-type protein, sequence (P01111 whole entry): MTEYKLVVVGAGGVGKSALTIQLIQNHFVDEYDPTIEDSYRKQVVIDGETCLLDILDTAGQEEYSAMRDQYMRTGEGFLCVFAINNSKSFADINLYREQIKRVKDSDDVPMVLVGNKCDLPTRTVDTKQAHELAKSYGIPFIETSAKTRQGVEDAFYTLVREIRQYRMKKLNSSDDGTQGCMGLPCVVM

[2] = target: GDP-bound HRAS wild-type protein (Homo sapiens, UniProt P01112); test: Binding to HRAS by surface plasmon resonance (SPR), Single Cycle Kinetics; conditions: SPR
GDP-bound HRAS wild-type protein, sequence (P01112 whole entry): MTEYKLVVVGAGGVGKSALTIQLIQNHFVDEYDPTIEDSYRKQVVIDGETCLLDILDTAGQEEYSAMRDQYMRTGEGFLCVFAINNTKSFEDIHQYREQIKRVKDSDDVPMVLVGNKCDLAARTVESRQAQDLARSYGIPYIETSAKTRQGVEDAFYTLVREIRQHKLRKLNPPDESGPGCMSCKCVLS

[3] = GDP-bound NRAS wild-type vs GDP-bound KRAS wild-type
[4] = GDP-bound HRAS wild-type vs GDP-bound KRAS wild-type
[5] = KD ratio, GDP-bound NRAS wild-type vs GDP-bound KRAS wild-type
[6] = KD ratio, GDP-bound HRAS wild-type vs GDP-bound KRAS wild-type

C=CCN1CC(=O)N(C)[C@H]2C/C=C\CCN(C2=O)[C@@H](Cc2ccc(C)cc2)C(=O)N(C)CC(=O)N[C@@H](CCc2ccc(C(F)(F)F)c(OC)c2)C(=O)N2C[C@H](OCC)C[C@H]2C(=O)NC2(CC(C)(C)C2)C(=O)N(C)[C@@H](C2CCCC2)C(=O)N(C)[C@H](C(=O)N(C)C)CC(=O)N(C)[C@@H](CC(C)C)C(=O)N[C@@H]([C@@H](C)CC)C1=O [PP2058]
NRAS/KRAS (ratio of KD value with respect to NRAS to KD value with respect to KRAS) [1, 3]: A (a compound having 10 or more and less than 20 is denoted as A) | HRAS/KRAS (ratio of KD value with respect to HRAS to KD value with respect to KRAS) [2, 4]: A (a compound having 10 or more and less than 20 is denoted as A)

CC[C@H](C)[C@@H]1NC(=O)[C@H](CC(C)C)N(C)C(=O)C[C@@H](C(=O)N(C)C)N(C)C(=O)[C@H](C2CCCC2)N(C)C(=O)C2(CCC2)N(C)C(=O)[C@@H]2CCCN2C(=O)[C@H](CCc2cc(F)c(C(F)(F)F)c(F)c2)NC(=O)CN(C)C(=O)[C@H](Cc2ccc(C)cc2)N2CC/C=C\C[C@@H](C2=O)N(C)C(=O)CN(C)C1=O [PP1791]
NRAS/KRAS (ratio of KD value for NRAS to KD value for KRAS) [1, 5]: A (a compound having 10 or more and less than 20 is denoted as A) | HRAS/KRAS (ratio of KD value for HRAS to KD value for KRAS) [2, 6]: A (a compound having 10 or more and less than 20 is denoted as A)

CCO[C@@H]1C[C@H]2C(=O)N(C)C3(CC(C)(C)C3)C(=O)N(C)[C@@H](C3CCCC3)C(=O)N(C)[C@H](C(=O)N(C)C)CC(=O)N(C)[C@H]3CCCC/C=C/c4ccc(cc4)C[C@@H](C(=O)N(C)CC(=O)N[C@@H](CCc4ccc(Cl)c(Cl)c4)C(=O)N2C1)N1CC/C=C\C[C@@H](C1=O)N(C)C(=O)CN(C)C(=O)[C@H]([C@@H](C)CC)NC3=O [PP3062]
NRAS/KRAS (ratio of KD value with respect to GDP-bound NRAS wild-type protein to KD value with respect to KRAS) ([1]; GDP-bound wild-type proteins): A (a compound having 10 or more and less than 20 is denoted as A) | HRAS/KRAS (ratio of KD value with respect to GDP-bound HRAS wild-type protein to KD value with respect to KRAS) ([2]; GDP-bound wild-type proteins): A (a compound having 10 or more and less than 20 is denoted as A)

CC[C@H](C)[C@@H]1NC(=O)[C@H](CC(C)C)N(C)C(=O)C[C@@H](C(=O)N2CCOCC2)N(C)C(=O)[C@H](C2CCCC2)N(C)C(=O)C2(CCCC2)NC(=O)[C@@H]2CCCN2C(=O)[C@H](CCc2ccc(C(F)(F)F)c(Cl)c2)NC(=O)CN(C)C(=O)[C@H](Cc2ccc(C(F)(F)F)cc2)N(CCC(C)(C)C)C(=O)[C@@H]2CCN2C(=O)[C@H](C)N(C)C1=O [PP0113] ([NMeL]I[NMeA][Aze][X6][Sar][hPhe(3-Cl-4-CF3)]P[Ac5c][NMeGly(cPent)][NMeD]-Morpholide; lactam N-11)
NRAS/KRAS (ratio of KD for GDP-bound NRAS wild-type to KD for KRAS) [1]: C (A compound having a KD ratio of 0.1 or more and less than 3 is denoted as C) | HRAS/KRAS (ratio of KD for GDP-bound HRAS wild-type to KD for KRAS) [2]: B (a compound having 3 or more and less than 10 is denoted as B)

CCCN1C(=O)CN(C)C(=O)[C@@H]2CCN2C(=O)[C@H]([C@@H](C)CC)NC(=O)[C@H](CC(C)C)N(C)C(=O)C[C@@H](C(=O)N2CCOCC2)N(C)C(=O)[C@H](C2CCCC2)N(C)C(=O)C2(CCCC2)NC(=O)[C@@H]2CC3(CC3)CN2C(=O)[C@H](CCc2ccc(C(F)(F)F)c(Cl)c2)NC(=O)CN(C)C(=O)[C@@H]1Cc1ccc(C(F)(F)F)cc1 [PP0308] ([NMeL]I[Aze][Sar][NPrPhe(4-CF3)][Sar][hPhe(3-Cl-4-CF3)][Pro(4-spirocPr)][Ac5c][NMeGly(cPent)][NMeD]-Morpholide; lactam N-11)
NRAS/KRAS (ratio of KD for GDP-bound NRAS wild-type to KD for KRAS) [1]: B (a compound having 3 or more and less than 10 is denoted as B) | HRAS/KRAS (ratio of KD for GDP-bound HRAS wild-type to KD for KRAS) [2]: B (a compound having 3 or more and less than 10 is denoted as B)

CCO[C@@H]1C[C@H]2C(=O)NC3(CCC3)C(=O)N(C)[C@@H](C3CCCC3)C(=O)N(C)[C@H](C(=O)N3CCOCC3)CC(=O)N(C)[C@@H](COC)C(=O)N[C@@H]([C@@H](C)CC)C(=O)N(C)CC(=O)N(C)[C@H]3CCCCCN(C3=O)[C@@H](Cc3ccc(C(F)(F)F)cc3)C(=O)N(C)CC(=O)N[C@@H](CCc3cc(F)c(C(F)(F)F)c(F)c3)C(=O)N2C1 [PP0689]
NRAS/KRAS (ratio of KD value with respect to GDP-bound NRAS wild-type protein to KD value with respect to KRAS) [1]: B (a compound having 3 or more and less than 10 is denoted as B) | HRAS/KRAS (ratio of KD value with respect to GDP-bound HRAS wild-type protein to KD value with respect to KRAS) [2]: B (a compound having 3 or more and less than 10 is denoted as B)

CCCN1C(=O)[C@@H]2CCN2C(=O)[C@H](C)N(C)C(=O)[C@H]([C@@H](C)CC)NC(=O)[C@H](CC(C)C)N(C)C(=O)C[C@@H](C(=O)N2CCOCC2)N(C)C(=O)[C@H](C2CCCC2)N(C)C(=O)C2(CCCC2)NC(=O)[C@@H]2CCCN2C(=O)[C@H](CCc2ccc(Cl)c(Cl)c2)NC(=O)CN(C)C(=O)[C@@H]1Cc1ccc(C(F)(F)F)cc1 [PP0227] ([NMeL]I[NMeA][Aze][NPrPhe(4-CF3)][Sar][hPhe(3,4-Cl2)]P[Ac5c][NMeGly(cPent)][NMeD]-Morpholide; lactam N-11)
NRAS/KRAS (ratio of KD for GDP-bound NRAS wild-type to KD for KRAS) [1]: C (A compound having a KD ratio of 0.1 or more and less than 3 is denoted as C) | HRAS/KRAS (ratio of KD for GDP-bound HRAS wild-type to KD for KRAS) [2]: B (a compound having 3 or more and less than 10 is denoted as B)

CCO[C@@H]1C[C@H]2C(=O)NC3(CCCC3)C(=O)N(C)[C@@H](C3CCCC3)C(=O)N(C)[C@H](C(=O)N3CCOCC3)CC(=O)N(C)[C@@H](CC(C)C)C(=O)N[C@@H]([C@@H](C)CC)C(=O)N(C)CC(=O)N(C)[C@H]3CCCCN(C3=O)[C@@H](Cc3ccc(C(F)(F)F)cc3)C(=O)N(C)CC(=O)N[C@@H](CCc3cc(F)c(C(F)(F)F)c(F)c3)C(=O)N2C1 [PP0554]
NRAS/KRAS (ratio of KD value with respect to GDP-bound NRAS wild-type protein to KD value with respect to KRAS) [1]: B (a compound having 3 or more and less than 10 is denoted as B) | HRAS/KRAS (ratio of KD value with respect to GDP-bound HRAS wild-type protein to KD value with respect to KRAS) [2]: B (a compound having 3 or more and less than 10 is denoted as B)

CCCN1C(=O)CN(C)C(=O)[C@@H]2CCN2C(=O)[C@H]([C@@H](C)CC)NC(=O)[C@H](CC(C)C)N(C)C(=O)C[C@@H](C(=O)N2CCOCC2)NC(=O)[C@H](C2CCCC2)N(C)C(=O)C2(CCC2)NC(=O)[C@@H]2CCCN2C(=O)[C@H](CCc2ccc(C(F)(F)F)c(Cl)c2)NC(=O)CN(C)C(=O)[C@@H]1Cc1ccc(C(F)(F)F)cc1 [PP0338] ([NMeL]I[Aze][Sar][NPrPhe(4-CF3)][Sar][hPhe(3-Cl-4-CF3)]P[Ac4c][NMeGly(cPent)]D-Morpholide; lactam N-11)
NRAS/KRAS (ratio of KD for GDP-bound NRAS wild-type to KD for KRAS) [1]: B (a compound having 3 or more and less than 10 is denoted as B) | HRAS/KRAS (ratio of KD for GDP-bound HRAS wild-type to KD for KRAS) [2]: B (a compound having 3 or more and less than 10 is denoted as B)

CCCN1C(=O)[C@@H]2CCN2C(=O)[C@H](C)N(C)C(=O)[C@H](C2CCC2)NC(=O)[C@H](CC(C)C)N(C)C(=O)C[C@@H](C(=O)N2CCOCC2)N(C)C(=O)[C@H](C2CCCC2)N(C)C(=O)C2(CCCC2)NC(=O)[C@@H]2CCCN2C(=O)[C@H](CCc2ccc(C(F)(F)F)c(Cl)c2)NC(=O)CN(C)C(=O)[C@@H]1Cc1ccc(C(F)(F)F)cc1 [PP0271] ([NMeL][Gly(cBu)][NMeA][Aze][NPrPhe(4-CF3)][Sar][hPhe(3-Cl-4-CF3)]P[Ac5c][NMeGly(cPent)][NMeD]-Morpholide; lactam N-11)
NRAS/KRAS (ratio of KD for GDP-bound NRAS wild-type to KD for KRAS) [1]: C (A compound having a KD ratio of 0.1 or more and less than 3 is denoted as C) | HRAS/KRAS (ratio of KD for GDP-bound HRAS wild-type to KD for KRAS) [2]: B (a compound having 3 or more and less than 10 is denoted as B)

CCC[C@H]1C(=O)N[C@@H]([C@@H](C)CC)C(=O)N(C)CC(=O)N(C)CC(=O)N(CCC)[C@@H](Cc2ccc(C(F)(F)F)cc2)C(=O)N(C)CC(=O)N[C@@H](CCc2ccc(C(F)(F)F)c(Cl)c2)C(=O)N2CC(F)(F)C[C@H]2C(=O)NC2(CCCC2)C(=O)N(C)[C@@H](C2CCCC2)C(=O)N(C)[C@H](C(=O)N2CCOCC2)CC(=O)N1C [PP0201] ([NMeNva]I[Sar][Sar][NPrPhe(4-CF3)][Sar][hPhe(3-Cl-4-CF3)][Pro(4,4-F2)][Ac5c][NMeGly(cPent)][NMeD]-Morpholide; lactam N-11)
NRAS/KRAS (ratio of KD for GDP-bound NRAS wild-type to KD for KRAS) [1]: B (a compound having 3 or more and less than 10 is denoted as B) | HRAS/KRAS (ratio of KD for GDP-bound HRAS wild-type to KD for KRAS) [2]: C (A compound having a KD ratio of 0.1 or more and less than 3 is denoted as C)

CCOC[C@H]1C(=O)N[C@@H]([C@@H](C)CC)C(=O)N(C)CC(=O)N(C)[C@H]2C/C=C\CCN(C2=O)[C@@H](Cc2ccc(C)cc2)C(=O)N(C)CC(=O)N[C@@H](CCc2cc(F)c(C(F)(F)F)c(F)c2)C(=O)N2C[C@@H](C)C[C@H]2C(=O)NC2(CC(C)(C)C2)C(=O)N(C)[C@@H](C2CCCC2)C(=O)N(C)[C@H](C(=O)N(CC)CC)CC(=O)N1C [PP2407]
NRAS/KRAS (ratio of KD value with respect to NRAS to KD value with respect to KRAS) [1, 3]: A (a compound having 10 or more and less than 20 is denoted as A) | HRAS/KRAS (ratio of KD value with respect to HRAS to KD value with respect to KRAS) [2, 4]: A (a compound having 10 or more and less than 20 is denoted as A)

CCO[C@@H]1C[C@H]2C(=O)NC3(CCC3)C(=O)N(C)[C@@H](C3CCCC3)C(=O)N(C)[C@H](C(=O)N3CCOCC3)CC(=O)N(C)[C@@H](Cc3ccc(F)c(F)c3)C(=O)N[C@@H]([C@@H](C)CC)C(=O)N(C)CC(=O)N(C)[C@H]3CCCCCN(C3=O)[C@@H](Cc3ccc(C(F)(F)F)cc3)C(=O)N(C)CC(=O)N[C@@H](CCc3cc(F)c(C(F)(F)F)c(F)c3)C(=O)N2C1 [PP0928]
NRAS/KRAS (ratio of KD value with respect to NRAS to KD value with respect to KRAS) [1, 5]: A (a compound having 10 or more and less than 20 is denoted as A) | HRAS/KRAS (ratio of KD value with respect to HRAS to KD value with respect to KRAS) [2, 6]: B (a compound having 3 or more and less than 10 is denoted as B)
